Experiments:
Type in all cases: in vivo
[1] = tested on: barnyardgrass (Echinochloa crus-galli); assay: Test A preemergence soil spray, visual injury rating 0-100; conditions: 10 days, 0 = no effect, 100 = complete control
Procedure, shortened: (§1)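 Seeds sown in loam-sand blend got a preemergence directed soil spray, or emerged plants (2-10 cm, one- to two-leaf) got a postemergence spray, of compound in non-phytotoxic solvent with surfactant. After 10 days in greenhouse, injury rated visually versus untreated controls on a 0 (no effect) to 100 (complete control) scale.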

[2] = tested on: blackgrass (Alopecurus myosuroides); assay: as above; conditions: 10 days, 0 = no effect, 100 = complete control
Procedure, shortened: as §1

corn (Zea mays) [3] = assay: as above; conditions: 10 days, 0 = no effect, 100 = complete control
Procedure, shortened: as §1

[4] = tested on: green foxtail (Setaria viridis); assay: as above; conditions: 10 days, 0 = no effect, 100 = complete control
Procedure, shortened: as §1

kochia (Bassia scoparia) [5] = assay: as above; conditions: 10 days, 0 = no effect, 100 = complete control
Procedure, shortened: as §1

[6] = tested on: oat, wild (wild oat, Avena fatua); assay: as above; conditions: 10 days, 0 = no effect, 100 = complete control
Procedure, shortened: as §1

[7] = tested on: palmer (palmer amaranth, palmer pigweed, Amaranthus palmeri); assay: as above; conditions: 10 days, 0 = no effect, 100 = complete control
Procedure, shortened: as §1

[8] = tested on: ragweed (common ragweed, Ambrosia artemisiifolia); assay: as above; conditions: 10 days, 0 = no effect, 100 = complete control
Procedure, shortened: as §1

soybean (Glycine max) [9] = assay: as above; conditions: 10 days, 0 = no effect, 100 = complete control
Procedure, shortened: as §1

[10] = tested on: wheat (Triticum aestivum); assay: as above; conditions: 10 days, 0 = no effect, 100 = complete control
Procedure, shortened: as §1

[11] = tested on: barnyardgrass (Echinochloa crus-galli); assay: Test A postemergence application, visual injury rating 0-100; conditions: 10 days
Procedure, shortened: as §1

[12] = tested on: blackgrass (Alopecurus myosuroides); assay: as above; conditions: 10 days
Procedure, shortened: as §1

corn (Zea mays) [13] = assay: as above; conditions: 10 days
Procedure, shortened: as §1

[14] = tested on: galium (catchweed bedstraw, Galium aparine); assay: as above; conditions: 10 days
Procedure, shortened: as §1

[15] = tested on: green foxtail (Setaria viridis); assay: as above; conditions: 10 days
Procedure, shortened: as §1

[16] = tested on: horseweed (Erigeron canadensis); assay: as above; conditions: 10 days
Procedure, shortened: as §1

kochia (Bassia scoparia) [17] = assay: as above; conditions: 10 days
Procedure, shortened: as §1

[18] = tested on: oat, wild (wild oat, Avena fatua); assay: as above; conditions: 10 days
Procedure, shortened: as §1

[19] = tested on: palmer (palmer amaranth, palmer pigweed, Amaranthus palmeri); assay: as above; conditions: 10 days
Procedure, shortened: as §1

[20] = tested on: ragweed (common ragweed, Ambrosia artemisiifolia); assay: as above; conditions: 10 days
Procedure, shortened: as §1

[21] = tested on: ryegrass, Italian (italian ryegrass, Lolium multiflorum); assay: as above; conditions: 10 days
Procedure, shortened: as §1

soybean (Glycine max) [22] = assay: as above; conditions: 10 days
Procedure, shortened: as §1

[23] = tested on: wheat (Triticum aestivum); assay: as above; conditions: 10 days
Procedure, shortened: as §1

[24] = tested on: barnyardgrass (Echinochloa crusgalli); assay: Test B flooded paddy test, visual plant response rating 0-100; conditions: 250 g ai/ha, Flood, applied to paddy water, evaluated after 13 days
Procedure, shortened: (§2)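 In this flooded assay, 2-leaf seedlings received compound through the water layer, kept at 3 cm over the soil. Plants were held 13 days in a greenhouse and then visually compared with control pots.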

[25] = tested on: ducksalad (Heteranthera limosa); assay: as above; conditions: 250 g ai/ha, Flood, applied to paddy water, evaluated after 13 days
Procedure, shortened: as §2

rice (Oryza sativa) = assay: as above; conditions: 250 g ai/ha, Flood, applied to paddy water, evaluated after 13 days
Procedure, shortened: as §2

[26] = tested on: sedge, umbrella (small-flower umbrella sedge, Cyperus difformis); assay: as above; conditions: 250 g ai/ha, Flood, applied to paddy water, evaluated after 13 days
Procedure, shortened: as §2

[27] = 31 g ai/ha, postemergence, 0 = no effect, 100 = complete control
[28] = Postemergence, 125 g ai/ha, 0 is no effect, 100 is complete control

CC1(C(=O)NC2CCC(C(=O)O)C2)CN(c2cc(F)cc(Cl)c2)C(=O)O1 (centres unmarked) [Compound 7]
Barnyardgrass plant response rating (0-100) ([1]; 31 g ai/ha): 0
Barnyardgrass plant response rating (0 to 100 scale) ([1]; 125 g ai/ha): 90
Blackgrass plant response rating (0-100) ([2]; 31 g ai/ha): 20
Blackgrass plant response rating (0 to 100 scale) ([2]; 125 g ai/ha): 70
Corn plant response rating (0-100) (corn (Zea mays) [3]; 31 g ai/ha): 0
Corn plant response rating (0 to 100 scale) (corn (Zea mays) [3]; 125 g ai/ha): 80
Foxtail, Green plant response rating (0-100) ([4]; 31 g ai/ha): 20
Foxtail, Green plant response rating (0 to 100 scale) ([4]; 125 g ai/ha): 100
Kochia plant response rating (0-100) (kochia (Bassia scoparia) [5]; 31 g ai/ha): 0
Kochia plant response rating (0 to 100 scale) (kochia (Bassia scoparia) [5]; 125 g ai/ha): 80
Oat, Wild plant response rating (0-100) ([6]; 31 g ai/ha): 20
Oat, Wild plant response rating (0 to 100 scale) ([6]; 125 g ai/ha): 70
Amaranth, Palmer plant response rating (0-100) ([7]; 31 g ai/ha): 0
Amaranth, Palmer plant response rating (0 to 100 scale) ([7]; 125 g ai/ha): 90
Ragweed plant response rating (0-100) ([8]; 31 g ai/ha): 0
Ragweed plant response rating (0 to 100 scale) ([8]; 125 g ai/ha): 0
Soybean plant response rating (0-100) (soybean (Glycine max) [9]; 31 g ai/ha): 20
Soybean plant response rating (0 to 100 scale) (soybean (Glycine max) [9]; 125 g ai/ha): 60
Wheat plant response rating (0-100) ([10]; 31 g ai/ha): 90
Wheat plant response rating (0 to 100 scale) ([10]; 125 g ai/ha): 90
Barnyardgrass plant response rating (0-100) [11, 27]: 100
Barnyardgrass plant response rating (0 to 100 scale) [11, 28]: 100
Blackgrass plant response rating (0-100) [12, 27]: 60
Blackgrass plant response rating (0 to 100 scale) [12, 28]: 70
Corn plant response rating (0-100) (corn (Zea mays) [13]; [27]): 90
Corn plant response rating (0 to 100 scale) (corn (Zea mays) [13]; [28]): 100
Galium plant response rating (0-100) [14, 27]: 80
Galium plant response rating (0 to 100 scale) [14, 28]: 80
Foxtail, Green plant response rating (0-100) [15, 27]: 50
Foxtail, Green plant response rating (0 to 100 scale) [15, 28]: 90
Horseweed plant response rating (0-100) [16, 27]: 0
Horseweed plant response rating (0 to 100 scale) [16, 28]: 40
Kochia plant response rating (0-100) (kochia (Bassia scoparia) [17]; [27]): 70
Kochia plant response rating (0 to 100 scale) (kochia (Bassia scoparia) [17]; [28]): 80
Oat, Wild plant response rating (0-100) [18, 27]: 90
Oat, Wild plant response rating (0 to 100 scale) [18, 28]: 100
Amaranth, Palmer plant response rating (0-100) [19, 27]: 50
Amaranth, Palmer / Pigweed, Palmer plant response rating (0 to 100 scale) [19, 28]: 80
Ragweed plant response rating (0-100) [20, 27]: 0
Ragweed plant response rating (0 to 100 scale) [20, 28]: 20
Ryegrass, Italian plant response rating (0-100) [21, 27]: 80
Ryegrass, Italian plant response rating (0 to 100 scale) [21, 28]: 90
Soybean plant response rating (0-100) (soybean (Glycine max) [22]; [27]): 50
Soybean plant response rating (0 to 100 scale) (soybean (Glycine max) [22]; [28]): 60
Wheat plant response rating (0-100) [23, 27]: 90
Wheat plant response rating (0 to 100 scale) [23, 28]: 90
Plant response rating, Barnyardgrass (0 to 100 scale, 0 is no effect and 100 is complete control) [24]: 60
Plant response rating, Ducksalad (0 to 100 scale, 0 is no effect and 100 is complete control) [25]: 60
Plant response rating, Rice (0 to 100 scale, 0 is no effect and 100 is complete control) (rice (Oryza sativa)): 25
Plant response rating, Sedge, Umbrella (0 to 100 scale, 0 is no effect and 100 is complete control) [26]: 90

From patent publication US20260285850A1, “SUBSTITUTED OXAZOLIDINONES AND IMIDAZOLINONES AS HERBICIDES” (FMC CORPORATION, priority 2023, published 2026)
